What was measured:
Assay type in all cases: binding
[1] = target: T1, BphP1-FP (Rhodopseudomonas palustris, UniProt A0A161I5N6, I252C, form not given); experiment: zinc-induced fluorescence on SDS-PAGE; absorption and fluorescence spectroscopy; conditions: covalent, to Cys256 (GAF) and partly also Cys15 (PAS); co-expressed heme oxygenase supplies BV; 20 mM Tris/HCl pH 8.0, 1 mM TCEP
T1 construct: engineered near-infrared fluorescent protein from PAS-GAF (CBD) of RpBphP1, lacks PHY and effector domains; N-terminal polyhistidine tag (pBAD/His-B); E. coli LMG194 with heme oxygenase; monomer, about 35 kDa
T1 sequence (A0A161I5N6 1-314 I252C limits assumed): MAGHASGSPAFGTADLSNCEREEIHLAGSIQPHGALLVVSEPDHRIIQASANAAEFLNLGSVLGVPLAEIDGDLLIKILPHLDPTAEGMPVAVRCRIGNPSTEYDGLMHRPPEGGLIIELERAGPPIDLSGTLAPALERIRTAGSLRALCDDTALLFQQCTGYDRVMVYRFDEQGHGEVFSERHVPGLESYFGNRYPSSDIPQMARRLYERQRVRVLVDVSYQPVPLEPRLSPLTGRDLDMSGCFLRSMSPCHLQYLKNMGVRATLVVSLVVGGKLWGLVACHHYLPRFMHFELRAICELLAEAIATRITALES

[2] = target: T2, BphP1-FP (Rhodopseudomonas palustris, UniProt A0A161I5N6, C19S/I252C, form not given); experiment: as above; conditions: covalent, to Cys256 (GAF) only; otherwise same
T2 construct: engineered near-infrared fluorescent protein from PAS-GAF (CBD) of RpBphP1, lacks PHY and effector domains; N-terminal polyhistidine tag (pBAD/His-B); E. coli LMG194 with heme oxygenase; monomer, about 35 kDa
T2 sequence (A0A161I5N6 1-314 C19S/I252C limits assumed): as the sequence (A0A161I5N6 1-314 I252C limits assumed) above, with C19S counted along it

[3] = target: T3, BphP1-FP (Rhodopseudomonas palustris, UniProt A0A161I5N6, C19S, form not given); experiment: absorption and fluorescence spectroscopy of purified holoprotein; conditions: non-covalent (no reactive Cys); otherwise same
T3 construct: engineered near-infrared fluorescent protein from PAS-GAF (CBD) of RpBphP1, lacks PHY and effector domains; N-terminal polyhistidine tag (pBAD/His-B); E. coli LMG194 with heme oxygenase; monomer, about 35 kDa
T3 sequence (A0A161I5N6 1-314 C19S limits assumed): as the sequence (A0A161I5N6 1-314 I252C limits assumed) above, with C19S, C252I counted along it

C=CC1=C(C)C(=Cc2[nH]c(C=C3N=C(C=C4NC(=O)C(C)=C4C=C)C(C)=C3CCC(=O)O)c(CCC(=O)O)c2C)NC1=O [BV, biliverdin]
zinc-induced fluorescence on SDS-PAGE; absorption and fluorescence spectroscopy [1]: The zinc-staining assay confirmed the covalent binding of the BV chromophore in BphP1-FP, BphP1-FP/C256I | zinc-induced fluorescence on SDS-PAGE; absorption and fluorescence spectroscopy [2]: there was no non-covalently bound BV in BphP1-FP/C15S | absorption and fluorescence spectroscopy of purified holoprotein [3]: Absorption and fluorescence spectra of BphP1-FP/C15S/C256I mutant without Cys15 and Cys256 residues
